Test results published in the kinase profiling compilation of Christmann-Franck et al. (2016).

Columns and labels:
Experiment in all cases: KINOMEscan competition binding
Settings in all cases: compound 10.0 µM
PAK6 (human) = PAK6 (human) (UniProt Q9NQU5)
PRKCQ (human) = PRKCQ (human) (UniProt Q04759)
TGFBR1 (human) = TGFBR1 (human) (UniProt P36897)
FER (human) = FER (human) (UniProt P16591)
MELK (human) = MELK (human) (UniProt Q14680)
FLT1 (human) = FLT1 (human) (UniProt P17948)
DCLK3 (human) = DCLK3 (human) (UniProt Q9C098)
ROCK2 (human) = ROCK2 (human) (UniProt O75116)
RET (human) = RET (human) (UniProt P07949)
PKMYT1 (human) = PKMYT1 (human) (UniProt Q99640)
ZAP70 (human) = ZAP70 (human) (UniProt P43403)
MYLK3 (human) = MYLK3 (human) (UniProt Q32MK0)
PAK4 (human) = PAK4 (human) (UniProt O96013)
PTK6 (human) = PTK6 (human) (UniProt Q13882)
STK32B (human) = STK32B (human) (UniProt Q9NY57)
MAP3K10 (human) = MAP3K10 (human) (UniProt Q02779)
MAPK9 (human) = MAPK9 (human) (UniProt P45984)
DAPK1 (human) = DAPK1 (human) (UniProt P53355)
MAPK4 (human) = MAPK4 (human) (UniProt P31152)
MYLK2 (human) = MYLK2 (human) (UniProt Q9H1R3)
MAP2K1 (human) = MAP2K1 (human) (UniProt Q02750)
ABL2 (human) = ABL2 (human) (UniProt P42684)
ADCK3 (human) = ADCK3 (human) (UniProt Q8NI60)
MAPKAPK2 (human) = MAPKAPK2 (human) (UniProt P49137)
SIK1 (human) = SIK1 (human) (UniProt P57059)
SRC (human) = SRC (human) (UniProt P12931)
EPHA6 (human) = EPHA6 (human) (UniProt Q9UF33)
CSNK2A2 (human) = CSNK2A2 (human) (UniProt P19784)
CDK18 (human) = CDK18 (human) (UniProt Q07002)
INSRR (human) = INSRR (human) (UniProt P14616)
STK32C (human) = STK32C (human) (UniProt Q86UX6)
HIPK4 (human) = HIPK4 (human) (UniProt Q8NE63)
CDKL5 (human) = CDKL5 (human) (UniProt O76039)
[1] = tested on: EGFR (human), P00533 [T790M/L858R]
OXSR1 (human) = OXSR1 (human) (UniProt O95747)
SBK1 (human) = SBK1 (human) (UniProt Q52WX2)

Sequence of TGFBR1 (human) (P36897 whole entry, looked up): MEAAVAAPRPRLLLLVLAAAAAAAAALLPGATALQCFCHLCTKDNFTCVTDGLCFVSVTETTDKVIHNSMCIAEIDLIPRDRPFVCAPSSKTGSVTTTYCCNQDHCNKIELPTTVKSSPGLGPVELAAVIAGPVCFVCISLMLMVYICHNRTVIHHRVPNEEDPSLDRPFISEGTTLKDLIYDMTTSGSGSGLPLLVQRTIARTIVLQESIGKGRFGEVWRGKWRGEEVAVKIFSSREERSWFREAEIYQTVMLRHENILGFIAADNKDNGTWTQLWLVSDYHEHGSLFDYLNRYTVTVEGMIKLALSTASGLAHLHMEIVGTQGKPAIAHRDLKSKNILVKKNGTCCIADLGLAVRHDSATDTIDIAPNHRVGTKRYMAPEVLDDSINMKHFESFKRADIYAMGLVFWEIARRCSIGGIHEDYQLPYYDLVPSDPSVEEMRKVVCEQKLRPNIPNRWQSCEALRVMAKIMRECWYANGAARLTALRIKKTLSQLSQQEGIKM
Sequence of MAPK4 (human) (P31152 whole entry, looked up): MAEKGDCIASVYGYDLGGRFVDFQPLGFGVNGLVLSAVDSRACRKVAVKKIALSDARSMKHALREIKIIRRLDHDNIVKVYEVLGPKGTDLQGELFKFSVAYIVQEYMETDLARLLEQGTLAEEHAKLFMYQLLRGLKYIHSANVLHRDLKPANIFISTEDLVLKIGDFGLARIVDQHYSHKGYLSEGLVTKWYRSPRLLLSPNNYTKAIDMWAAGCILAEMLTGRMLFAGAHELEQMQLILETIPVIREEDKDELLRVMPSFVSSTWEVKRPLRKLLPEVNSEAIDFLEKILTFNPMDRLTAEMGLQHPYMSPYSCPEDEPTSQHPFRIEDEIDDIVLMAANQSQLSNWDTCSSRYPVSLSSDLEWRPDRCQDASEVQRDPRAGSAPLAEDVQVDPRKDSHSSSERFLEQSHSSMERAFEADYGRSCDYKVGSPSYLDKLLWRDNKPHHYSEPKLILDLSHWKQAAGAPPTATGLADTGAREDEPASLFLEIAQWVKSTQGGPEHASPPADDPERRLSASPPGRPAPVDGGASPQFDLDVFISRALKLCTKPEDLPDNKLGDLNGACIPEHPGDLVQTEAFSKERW
Sequence of PKMYT1 (human) (Q99640 whole entry, looked up): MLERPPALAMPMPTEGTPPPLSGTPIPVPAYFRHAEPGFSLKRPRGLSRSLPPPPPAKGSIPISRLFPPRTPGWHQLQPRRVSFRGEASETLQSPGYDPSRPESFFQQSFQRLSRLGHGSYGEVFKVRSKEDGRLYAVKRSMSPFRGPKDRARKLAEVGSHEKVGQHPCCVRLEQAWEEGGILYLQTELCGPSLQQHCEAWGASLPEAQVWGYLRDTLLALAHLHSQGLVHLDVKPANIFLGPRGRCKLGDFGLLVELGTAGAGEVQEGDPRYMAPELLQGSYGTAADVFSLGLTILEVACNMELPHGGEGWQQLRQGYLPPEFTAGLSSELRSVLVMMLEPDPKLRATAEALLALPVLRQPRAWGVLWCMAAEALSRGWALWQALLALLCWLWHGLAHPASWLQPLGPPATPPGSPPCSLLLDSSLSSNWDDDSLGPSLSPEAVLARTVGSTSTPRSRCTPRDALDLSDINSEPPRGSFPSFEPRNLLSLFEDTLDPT
Sequence of PRKCQ (human) (Q04759 whole entry, looked up): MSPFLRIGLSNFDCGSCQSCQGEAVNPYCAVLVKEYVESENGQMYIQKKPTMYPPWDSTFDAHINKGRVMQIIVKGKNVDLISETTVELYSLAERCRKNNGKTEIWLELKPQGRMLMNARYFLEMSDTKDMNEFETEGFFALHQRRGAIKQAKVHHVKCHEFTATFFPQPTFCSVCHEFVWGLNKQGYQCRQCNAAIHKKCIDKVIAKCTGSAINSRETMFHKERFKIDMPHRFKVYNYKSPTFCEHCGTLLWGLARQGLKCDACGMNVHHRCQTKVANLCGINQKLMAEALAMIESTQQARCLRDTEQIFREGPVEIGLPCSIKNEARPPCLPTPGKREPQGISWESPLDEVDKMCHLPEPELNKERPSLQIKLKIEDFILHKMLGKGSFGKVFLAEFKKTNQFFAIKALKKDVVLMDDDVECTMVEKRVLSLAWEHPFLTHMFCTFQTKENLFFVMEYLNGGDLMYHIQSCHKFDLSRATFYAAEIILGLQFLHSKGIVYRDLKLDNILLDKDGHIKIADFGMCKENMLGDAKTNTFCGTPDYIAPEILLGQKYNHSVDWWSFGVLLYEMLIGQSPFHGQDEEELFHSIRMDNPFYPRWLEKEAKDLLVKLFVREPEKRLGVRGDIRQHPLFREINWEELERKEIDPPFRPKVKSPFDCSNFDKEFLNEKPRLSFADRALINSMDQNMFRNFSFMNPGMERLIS
Sequence of RET (human) (P07949 whole entry, looked up): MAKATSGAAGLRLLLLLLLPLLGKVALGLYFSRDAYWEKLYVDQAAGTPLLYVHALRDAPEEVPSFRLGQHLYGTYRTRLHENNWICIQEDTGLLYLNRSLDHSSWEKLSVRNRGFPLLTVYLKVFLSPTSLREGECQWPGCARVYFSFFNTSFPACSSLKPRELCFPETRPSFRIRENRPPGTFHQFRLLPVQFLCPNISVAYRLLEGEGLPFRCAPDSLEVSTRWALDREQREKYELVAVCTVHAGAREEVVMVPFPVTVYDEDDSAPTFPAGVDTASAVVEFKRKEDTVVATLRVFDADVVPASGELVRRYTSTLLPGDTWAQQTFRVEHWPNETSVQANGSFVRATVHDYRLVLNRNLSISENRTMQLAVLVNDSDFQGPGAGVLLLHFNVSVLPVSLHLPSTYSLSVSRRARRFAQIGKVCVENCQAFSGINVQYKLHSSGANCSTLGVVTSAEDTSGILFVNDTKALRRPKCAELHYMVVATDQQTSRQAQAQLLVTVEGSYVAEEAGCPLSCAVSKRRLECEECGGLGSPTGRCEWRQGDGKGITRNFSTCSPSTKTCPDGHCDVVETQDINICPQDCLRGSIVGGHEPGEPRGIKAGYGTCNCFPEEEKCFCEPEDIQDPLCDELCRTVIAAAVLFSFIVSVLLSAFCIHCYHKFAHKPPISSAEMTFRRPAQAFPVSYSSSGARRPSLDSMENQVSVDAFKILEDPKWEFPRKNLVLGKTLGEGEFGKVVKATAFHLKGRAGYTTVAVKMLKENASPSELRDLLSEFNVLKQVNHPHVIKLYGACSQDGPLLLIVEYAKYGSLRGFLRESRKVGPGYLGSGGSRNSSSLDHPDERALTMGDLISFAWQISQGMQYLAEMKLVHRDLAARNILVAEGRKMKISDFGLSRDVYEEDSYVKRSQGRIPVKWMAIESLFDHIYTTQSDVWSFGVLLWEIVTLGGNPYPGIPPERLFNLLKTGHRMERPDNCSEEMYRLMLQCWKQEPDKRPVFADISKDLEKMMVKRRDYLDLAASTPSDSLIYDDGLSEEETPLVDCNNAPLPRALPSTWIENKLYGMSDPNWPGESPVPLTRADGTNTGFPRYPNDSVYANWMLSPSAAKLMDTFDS
Sequence of PTK6 (human) (Q13882 whole entry, looked up): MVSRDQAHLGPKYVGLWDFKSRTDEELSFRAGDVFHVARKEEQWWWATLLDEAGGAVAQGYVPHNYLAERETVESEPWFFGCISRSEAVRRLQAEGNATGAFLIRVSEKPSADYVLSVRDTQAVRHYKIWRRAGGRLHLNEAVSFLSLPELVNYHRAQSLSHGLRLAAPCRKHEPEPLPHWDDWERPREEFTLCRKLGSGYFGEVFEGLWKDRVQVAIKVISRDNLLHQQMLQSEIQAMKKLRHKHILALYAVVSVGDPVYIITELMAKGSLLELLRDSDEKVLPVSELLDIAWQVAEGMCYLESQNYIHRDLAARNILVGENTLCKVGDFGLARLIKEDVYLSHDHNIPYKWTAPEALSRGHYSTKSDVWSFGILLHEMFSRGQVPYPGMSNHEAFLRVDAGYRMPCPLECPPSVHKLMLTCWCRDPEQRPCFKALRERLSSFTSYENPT
Sequence of DCLK3 (human) (Q9C098 whole entry, looked up): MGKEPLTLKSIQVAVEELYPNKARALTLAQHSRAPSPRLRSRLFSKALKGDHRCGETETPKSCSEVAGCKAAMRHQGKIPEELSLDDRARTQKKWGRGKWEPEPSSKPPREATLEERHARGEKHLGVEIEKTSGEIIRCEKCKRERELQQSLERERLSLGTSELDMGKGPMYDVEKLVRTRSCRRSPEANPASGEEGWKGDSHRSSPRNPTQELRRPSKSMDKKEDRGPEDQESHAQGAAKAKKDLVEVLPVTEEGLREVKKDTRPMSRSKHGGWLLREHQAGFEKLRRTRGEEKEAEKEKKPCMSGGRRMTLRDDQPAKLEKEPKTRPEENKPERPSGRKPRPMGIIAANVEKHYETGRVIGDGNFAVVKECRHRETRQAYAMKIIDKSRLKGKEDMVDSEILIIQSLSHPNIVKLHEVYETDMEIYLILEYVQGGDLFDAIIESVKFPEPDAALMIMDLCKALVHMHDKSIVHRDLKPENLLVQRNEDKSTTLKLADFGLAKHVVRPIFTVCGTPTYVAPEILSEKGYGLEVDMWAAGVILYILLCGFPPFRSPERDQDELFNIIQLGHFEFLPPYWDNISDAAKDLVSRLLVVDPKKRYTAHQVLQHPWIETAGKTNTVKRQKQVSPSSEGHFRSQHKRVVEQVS
Sequence of CSNK2A2 (human) (P19784 whole entry, looked up): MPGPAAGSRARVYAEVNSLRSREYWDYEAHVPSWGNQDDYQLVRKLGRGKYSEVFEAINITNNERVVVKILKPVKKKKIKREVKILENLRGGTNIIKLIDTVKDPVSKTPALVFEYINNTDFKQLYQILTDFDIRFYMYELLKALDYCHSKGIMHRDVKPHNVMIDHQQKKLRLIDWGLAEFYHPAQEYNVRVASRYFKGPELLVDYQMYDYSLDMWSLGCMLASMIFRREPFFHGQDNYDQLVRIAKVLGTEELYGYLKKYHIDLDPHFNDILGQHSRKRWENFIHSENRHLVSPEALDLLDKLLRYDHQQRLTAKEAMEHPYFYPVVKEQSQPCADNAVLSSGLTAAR

SMILES	kinase still bound, per cent of control (PAK6 (human))	kinase still bound, per cent of control (PRKCQ (human))	kinase still bound, per cent of control (TGFBR1 (human))	kinase still bound, per cent of control (FER (human))	kinase still bound, per cent of control (MELK (human))	kinase still bound, per cent of control (FLT1 (human))	kinase still bound, per cent of control (DCLK3 (human))	kinase still bound, per cent of control (RET (human))	kinase still bound, per cent of control (PKMYT1 (human))	kinase still bound, per cent of control (ZAP70 (human))	kinase still bound, per cent of control (MYLK3 (human))	kinase still bound, per cent of control (PAK4 (human))	kinase still bound, per cent of control (PTK6 (human))	kinase still bound, per cent of control (STK32B (human))	kinase still bound, per cent of control (MAP3K10 (human))	kinase still bound, per cent of control (MAPK9 (human))	kinase still bound, per cent of control (DAPK1 (human))	kinase still bound, per cent of control (MAPK4 (human))	kinase still bound, per cent of control (MYLK2 (human))	kinase still bound, per cent of control (MAP2K1 (human))	further results
Cc1n[nH]c2ccc(-c3cncc(OC[C@@H](N)Cc4c[nH]c5ccccc45)c3)cc12	16%	0%	100%	100%	12%	100%	2%	100%	100%	100%	2.8%	13%	100%	100%	100%	100%	2.2%	100%	100%	100%	kinase still bound, per cent of control (ROCK2 (human)): 0%; kinase still bound, per cent of control (ABL2 (human)): 100%; kinase still bound, per cent of control (ADCK3 (human)): 100%; kinase still bound, per cent of control (MAPKAPK2 (human)): 100%; kinase still bound, per cent of control (SIK1 (human)): 100%; kinase still bound, per cent of control (SRC (human)): 100%; kinase still bound, per cent of control (EPHA6 (human)): 100%; kinase still bound, per cent of control (CSNK2A2 (human)): 13%; kinase still bound, per cent of control (CDK18 (human)): 28%; kinase still bound, per cent of control (INSRR (human)): 100%; kinase still bound, per cent of control (STK32C (human)): 100%
CS(=O)(=O)N1CCN(Cc2cc3nc(-c4cccc5[nH]ncc45)nc(N4CCOCC4)c3s2)CC1	100%	100%	100%	100%	100%	100%	100%	100%	100%	100%	100%	100%	100%	100%	100%	100%	100%	100%	100%	100%	kinase still bound, per cent of control (ROCK2 (human)): 100%; kinase still bound, per cent of control (HIPK4 (human)): 100%; kinase still bound, per cent of control (CDKL5 (human)): 100%; kinase still bound, per cent of control [1]: 100%; kinase still bound, per cent of control (OXSR1 (human)): 100%; kinase still bound, per cent of control (ABL2 (human)): 100%; kinase still bound, per cent of control (ADCK3 (human)): 100%; kinase still bound, per cent of control (MAPKAPK2 (human)): 100%; kinase still bound, per cent of control (SBK1 (human)): 100%; kinase still bound, per cent of control (SIK1 (human)): 100%; kinase still bound, per cent of control (SRC (human)): 100%; kinase still bound, per cent of control (EPHA6 (human)): 100%; kinase still bound, per cent of control (CSNK2A2 (human)): 100%; kinase still bound, per cent of control (CDK18 (human)): 100%; kinase still bound, per cent of control (INSRR (human)): 100%; kinase still bound, per cent of control (STK32C (human)): 100%

The next lines start with results.

kinase still bound, per cent of control (PAK6 (human))	kinase still bound, per cent of control (PRKCQ (human))	kinase still bound, per cent of control (TGFBR1 (human))	kinase still bound, per cent of control (FER (human))	kinase still bound, per cent of control (MELK (human))	kinase still bound, per cent of control (FLT1 (human))	kinase still bound, per cent of control (DCLK3 (human))	kinase still bound, per cent of control (RET (human))	kinase still bound, per cent of control (PKMYT1 (human))	kinase still bound, per cent of control (ZAP70 (human))	kinase still bound, per cent of control (MYLK3 (human))	kinase still bound, per cent of control (PAK4 (human))	kinase still bound, per cent of control (PTK6 (human))	kinase still bound, per cent of control (STK32B (human))	kinase still bound, per cent of control (MAP3K10 (human))	kinase still bound, per cent of control (MAPK9 (human))	kinase still bound, per cent of control (DAPK1 (human))	kinase still bound, per cent of control (MAPK4 (human))	kinase still bound, per cent of control (MYLK2 (human))	kinase still bound, per cent of control (MAP2K1 (human))	SMILES	further results
100%	24%	100%	1.1%	100%	100%	2.8%	3.8%	100%	100%	100%	18%	25%	100%	18%	100%	100%	100%	100%	3%	CNC(=O)c1ccc(Nc2cc(Nc3ccccc3S(=O)(=O)C(C)C)c3cc[nH]c3n2)nc1	kinase still bound, per cent of control (ROCK2 (human)): 0.95%; kinase still bound, per cent of control (ABL2 (human)): 9.4%; kinase still bound, per cent of control (ADCK3 (human)): 100%; kinase still bound, per cent of control (MAPKAPK2 (human)): 100%; kinase still bound, per cent of control (SIK1 (human)): 11%; kinase still bound, per cent of control (SRC (human)): 0.25%; kinase still bound, per cent of control (EPHA6 (human)): 29%; kinase still bound, per cent of control (CSNK2A2 (human)): 18%; kinase still bound, per cent of control (CDK18 (human)): 100%; kinase still bound, per cent of control (INSRR (human)): 3.2%; kinase still bound, per cent of control (STK32C (human)): 100%
100%	100%	100%	100%	100%	8%	100%	26%	100%	100%	100%	100%	100%	100%	100%	100%	100%	100%	100%	100%	CCN(CC)CCCCNc1ncc2cc(-c3cc(OC)cc(OC)c3)c(NC(=O)NC(C)(C)C)nc2n1	kinase still bound, per cent of control (ABL2 (human)): 100%; kinase still bound, per cent of control (ADCK3 (human)): 100%; kinase still bound, per cent of control (MAPKAPK2 (human)): 100%; kinase still bound, per cent of control (SIK1 (human)): 100%; kinase still bound, per cent of control (SRC (human)): 100%; kinase still bound, per cent of control (EPHA6 (human)): 100%; kinase still bound, per cent of control (CSNK2A2 (human)): 100%; kinase still bound, per cent of control (CDK18 (human)): 100%; kinase still bound, per cent of control (INSRR (human)): 100%; kinase still bound, per cent of control (STK32C (human)): 100%
100%	100%	100%	100%	100%	0.3%	100%	0.6%	100%	100%	100%	100%	100%	100%	13%	100%	100%	100%	100%	100%	C=CC(=O)Nc1ccc(CN(C(=O)Nc2c(Cl)c(OC)cc(OC)c2Cl)c2cc(Nc3ccc(N4CCN(C)CC4)cc3)ncn2)cc1	kinase still bound, per cent of control (ROCK2 (human)): 100%; kinase still bound, per cent of control (ABL2 (human)): 9.1%; kinase still bound, per cent of control (ADCK3 (human)): 100%; kinase still bound, per cent of control (MAPKAPK2 (human)): 100%; kinase still bound, per cent of control (SIK1 (human)): 31%; kinase still bound, per cent of control (SRC (human)): 6.6%; kinase still bound, per cent of control (EPHA6 (human)): 100%; kinase still bound, per cent of control (CSNK2A2 (human)): 100%; kinase still bound, per cent of control (CDK18 (human)): 100%; kinase still bound, per cent of control (INSRR (human)): 18%; kinase still bound, per cent of control (STK32C (human)): 100%
